Experimental data: patent US9951039B2, “Pyrimidines for treatment of bacterial infections” (The Hong Kong Polytechnic University, priority 2016, dated 2018)

Experiments:
[1] = molecular target: T1, S. aureus FtsZ (Staphylococcus aureus, UniProt P0A031); experiment: FtsZ polymerization light scattering assay; assay type: biochemical; conditions: 30 μm of compound; FtsZ 12.5 μM, 1 mM GTP
T1 construct: 6-histidine tag; made in house; host or cells: E. coli BL21(DE3)
T1 sequence (P0A031 1-390): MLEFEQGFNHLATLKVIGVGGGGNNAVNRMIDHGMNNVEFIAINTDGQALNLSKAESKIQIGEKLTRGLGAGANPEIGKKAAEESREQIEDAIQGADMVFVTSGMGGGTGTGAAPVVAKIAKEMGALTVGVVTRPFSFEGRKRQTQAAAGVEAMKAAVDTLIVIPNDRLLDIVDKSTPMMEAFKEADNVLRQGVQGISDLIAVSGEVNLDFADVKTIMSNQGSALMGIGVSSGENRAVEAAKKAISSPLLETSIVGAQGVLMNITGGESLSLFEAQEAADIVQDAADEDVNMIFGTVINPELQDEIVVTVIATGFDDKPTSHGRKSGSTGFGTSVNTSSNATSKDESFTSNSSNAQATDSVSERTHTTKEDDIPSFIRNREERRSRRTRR
Procedure: Procedure for expression and purification of S. aureus FtsZ protein: S. aureus FtsZ protein was prepared as previous reported.^16a In brief, E. coli BL21(DE3) cells, transformed with a pRSET-A-S vector carrying S. aureus FtsZ with a 6-histidine tag attached, were streaked on a nutrient agar plate containing 50 μg/mL ampicillin. After overnight incubation at 37° C., a single colony was inoculated into 5 mL of Luria-Bertani (LB) medium in the presence of 50 μg/mL ampicillin, which was then incubated at 37° C., with shaking at 250 rpm for 16 h. The overnight culture was transferred into a fresh 2×TY medium in a dilution ratio of 1:100 and 50 μg/mL ampicillin was then added, followed by incubation at 37° C. with shaking at 250 rpm. When OD600 reached 0.8, protein expression was induced with 0.4 mM isopropyl-β-D-thiogalactopyranoside (IPTG) for 4 h. […]
Procedure: The polymerization of recombinant S. aureus FtsZ was measured using a 90° light scattering in a thermostatically (37° C.) controlled Fluorescence Spectrometer LS 50B according to previous reports.^16a,19 Both excitation and emission wavelengths were fixed to 600 nm with a slit width of 2.5 nm. […] After 8 min, the final concentration of 1 mM GTP was added at the last fraction and the increase in light scattering measured for an additional 2000 seconds. The rate and extent of polymerization were measured. […]

[2] = tested on: B. subtilis 168; experiment: Bacterial morphology of B. subtilis 168 (phase-contrast microscopy); assay type: cell-based; conditions: sub-lethal concentration, 4 h
Procedure: Procedure: The B. subtilis 168 cells were grown in LB medium. The cultures at an A600 of 0.01 from an overnight culture were inoculated in the same medium containing different concentrations of the test compounds and grown at 37° C. for 4 h. The cells for morphology studies were harvested and resuspended in 100 μL of PBS buffer containing 0.25% agarose. 10 μL of the suspension mixture were then placed on a microscopic slide pretreated with 0.1% (w/v) poly-L-lysine and the morphology of the bacterial cells was observed under a phase-contrast optical microscope at 40× magnification. The images were captured using an Olympus Bio Imaging Navigator FSX 100 microscope.

Question: How did the “inhibition of FtsZ polymerization” value [1] turn out when `CCC(CC)c1cc(CCN2CCCN(Cc3ccc(C(F)(F)F)cc3)CC2)nc(-c2ccncc2)n1` [Compound 14av_amine16, 1-(2-(6-(pentan-3-yl)-2-(pyridin-4-yl)pyrimidin-4-yl)ethyl)-4-(4-(trifluoromethyl)benzyl)-1,4-diazepane] was run?
Answer: The value was “Complete inhibition”.

Question: What about the average cell length [2] of the same compound?
Answer: The average cell length was greater than 20 μm.
